From patent US20260234161A1, “RIFABUTIN ANALOGS FOR THE TREATMENT OF BACTERIAL DISEASES” (BIOVERSYS AG, priority 2023, published 2026)
≈ marks a conversion by molar mass, not a printed value. Where two headings read alike, the source gives them in different places.

Assays:
Type in all cases: cell-based
[1] = system: S. aureus (UAMS-1625 strain); assay: MIC by broth microdilution, S. aureus; conditions: Staphylococcus aureus, 20 h, read-out: MIC S. aureus
Method: (§1) MIC values were determined by broth microdilution method according to the CLSI guidelines with the following exceptions: MIC against A. baumannii was performed in RPMI medium supplemented with 10% FCS and MIC against M. abscessus was performed in Middlebrook 7H9 broth supplemented with Middlebrook ADC growth supplement (10%; see column “M. abscessus 7H9”). MIC forM abscessus was determined a second time in standard cation adjusted Mueller Hinton broth without growth supplement (see colum “M. abscessus MH”). All other MIC were performed in standard cation adjusted Mueller Hinton broth, supplemented with Middlebrook ADC growth supplement (5%) for the slow growing mycobacteria (M. xenopi, M. kansasii and M. avium).
(§2) The following procedure applies to all species tested, except forM xenopi. From a fresh culture plate (from overnight to several days depending on the bacteria), cells were resuspended in 0.9% (w/v) saline solution and bacterial inoculum was prepared in the respective testing medium with 5×10^5 CFU/mL. For M. xenopi, the inoculum was prepared from a fresh liquid culture (7H9+ADC). The appropriate volumes of a 10 mg/mL compound solution were directly dispensed in the 96-well assay plate using a digital dispenser to create two-fold dilution series from 32 to 0.002 μg/mL final concentration for A. baumannii and S. aureus; from 16 to 0.016 μg/mL for M. abscessus and M. avium; and from 1 to 6×10^−5 μg/mL for M. kansasii and M. xenopi. 100 μL of bacterial suspension was finally added to the compounds. Plates were covered and incubated without shaking at 35° C. for 20 hours for A. baumanii and S. aureus; at 30° C. for 4 days for M. abscessus; and at 37° C. for 7 days (at least) for M. kansasii (covered with aluminum foil to avoid light exposure), M. avium and M. xenopi. Every experiment contained an antibiotic as quality control. MIC was determined visually as the lowest concentration of a compound that prevents visible growth of the bacteria.
(§3) The in vitro activity of compounds described herein was determined against S. aureus (UAMS-1625 strain), A. baumannii (HUMC1 strain), M. abscessus (ATCC 19977), M. kansasii (ATCC 12478), M. avium (ATCC 25291), and M. xenopi (ATCC 19250).

[2] = system: A. baumannii (HUMC1 strain); assay: MIC by broth microdilution, A. baumannii (RPMI + 10% FCS); conditions: Acinetobacter baumannii, read-out: MIC A. baumannii
Method: as §1, §2, §3

[3] = system: M. abscessus (ATCC 19977); assay: MIC by broth microdilution, M. abscessus in cation adjusted Mueller Hinton broth; conditions: Mycobacteroides abscessus, ATCC19977, 96 h, read-out: MIC M. abscessus MH
Method: as §1, §2, §3

[4] = HUMC1 strain, RPMI medium + 10% FCS, 35° C., 20 hours
[5] = ATCC 19977, cation adjusted Mueller Hinton broth without growth supplement, 30° C., 4 days

Compound	MIC [1] [µg/mL]	MIC [2, 4] [µg/mL]	MIC [3, 5] [µg/mL]	MIC ([2]; 20 h) [µg/mL]	MIC [3] [µg/mL]
CO[C@H]1/C=C/O[C@@]2(C)Oc3c(C)c(O)c4c(c3C2=O)C2=NC3(CCN(CC(C)C)CC3)NC2=C(NC(=O)/C(C)=C\C=C\[C@H](C)[C@H](O)[C@@H](C)[C@@H](O)[C@@H](C)[C@H](OC(=O)N2CCN(CC(C)(C)C)CC2)[C@@H]1C)C4=O [Compound 49]	0.5 (≈ 0.506 µM)	1	0.125 (≈ 0.127 µM)	–	–
CO[C@H]1/C=C/O[C@@]2(C)Oc3c(C)c(O)c4c(c3C2=O)C2=NC3(CCN(CC(C)C)CC3)NC2=C(NC(=O)/C(C)=C\C=C\[C@H](C)[C@H](O)[C@@H](C)[C@@H](O)[C@@H](C)[C@H](OC(=O)N2CCCN(C3CCCC3)CC2)[C@@H]1C)C4=O [Compound 60]	0.06 (≈ 0.06 µM)	≤ 0.016	0.25 (≈ 0.25 µM)	–	–
CO[C@H]1/C=C/O[C@@]2(C)Oc3c(C)c(O)c4c(c3C2=O)C2=NC3(CCN(CC(C)C)CC3)NC2=C(NC(=O)/C(C)=C\C=C\[C@H](C)[C@H](O)[C@@H](C)[C@@H](O)[C@@H](C)[C@H](OC(=O)N2CCN(c3nccs3)CC2)[C@@H]1C)C4=O [Compound 57]	0.06 (≈ 0.06 µM)	0.03	0.5 (≈ 0.5 µM)	–	–
CO[C@H]1/C=C/O[C@@]2(C)Oc3c(C)c(O)c4c(c3C2=O)C2=NC3(CCN(CC(C)C)CC3)NC2=C(NC(=O)/C(C)=C\C=C\[C@H](C)[C@H](O)[C@@H](C)[C@@H](O)[C@@H](C)[C@H](OC(=O)N2CCC3CCCCC3C2)[C@@H]1C)C4=O (stereo partly drawn) [Compound 64]	1 (≈ 1.03 µM)	0.5	4 (≈ 4.12 µM)	–	–
CO[C@H]1/C=C/O[C@@]2(C)Oc3c(C)c(O)c4c(c3C2=O)C2=NC3(CCN(CC(C)C)CC3)NC2=C(NC(=O)/C(C)=C\C=C\[C@H](C)[C@H](O)[C@@H](C)[C@@H](O)[C@@H](C)[C@H](OC(=O)NC2CCN(CC3CCCCC3)CC2)[C@@H]1C)C4=O [Compound 29]	0.125 (≈ 0.122 µM)	≤ 0.016	0.25 (≈ 0.243 µM)	–	–
CO[C@H]1/C=C/O[C@@]2(C)Oc3c(C)c(O)c4c(c3C2=O)C2=NC3(CCN(CC(C)C)CC3)NC2=C(NC(=O)/C(C)=C\C=C\[C@H](C)[C@H](O)[C@@H](C)[C@@H](O)[C@@H](C)[C@H](OC(=O)NC2CCN(C)CC2)[C@@H]1C)C4=O [Compound 73]	0.03 (≈ 0.0317 µM)	–	–	0.001	1 (≈ 1.06 µM)
CO[C@H]1/C=C/O[C@@]2(C)Oc3c(C)c(O)c4c(c3C2=O)C2=NC3(CCN(CC(C)C)CC3)NC2=C(NC(=O)/C(C)=C\C=C\[C@H](C)[C@H](O)[C@@H](C)[C@@H](O)[C@@H](C)[C@H](OC(=O)N2CCOC3(CCN(C)CC3)C2)[C@@H]1C)C4=O [Compound 24]	0.06 (≈ 0.0599 µM)	≤ 0.016	2 (≈ 2 µM)	–	–
CO[C@H]1/C=C/O[C@@]2(C)Oc3c(C)c(O)c4c(c3C2=O)C2=NC3(CCN(CC(C)C)CC3)NC2=C(NC(=O)/C(C)=C\C=C\[C@H](C)[C@H](O)[C@@H](C)[C@@H](O)[C@@H](C)[C@H](OC(=O)N(C)C2CC2)[C@@H]1C)C4=O [Compound 82]	0.06 (≈ 0.0665 µM)	0.008	4 (≈ 4.43 µM)	–	–
CO[C@H]1/C=C/O[C@@]2(C)Oc3c(C)c(O)c4c(c3C2=O)C2=NC3(CCN(CC(C)C)CC3)NC2=C(NC(=O)/C(C)=C\C=C\[C@H](C)[C@H](O)[C@@H](C)[C@@H](O)[C@@H](C)[C@H](OC(=O)N2CCC(n3ccnc3)CC2)[C@@H]1C)C4=O [Compound 61]	0.03 (≈ 0.0305 µM)	≤ 0.016	4 (≈ 4.07 µM)	–	–
CO[C@H]1/C=C/O[C@@]2(C)Oc3c(C)c(O)c4c(c3C2=O)C2=NC3(CCN(CC(C)C)CC3)NC2=C(NC(=O)/C(C)=C\C=C\[C@H](C)[C@H](O)[C@@H](C)[C@@H](O)[C@@H](C)[C@H](OC(=O)N2CCN(CC3CCOCC3)CC2)[C@@H]1C)C4=O [Compound 53]	0.125 (≈ 0.123 µM)	0.004	0.125 (≈ 0.123 µM)	–	–
CCCN1CCN(C(=O)O[C@H]2[C@H](C)[C@H](O)[C@H](C)[C@@H](O)[C@@H](C)/C=C/C=C(/C)C(=O)NC3=C4NC5(CCN(CC(C)C)CC5)N=C4c4c(c(O)c(C)c5c4C(=O)[C@@](C)(O/C=C/[C@H](OC)[C@H]2C)O5)C3=O)CC12CC2 [Compound 59]	0.25 (≈ 0.254 µM)	0.03	0.125 (≈ 0.127 µM)	–	–
CO[C@H]1/C=C/O[C@@]2(C)Oc3c(C)c(O)c4c(c3C2=O)C2=NC3(CCN(CC(C)C)CC3)NC2=C(NC(=O)/C(C)=C\C=C\[C@H](C)[C@H](O)[C@@H](C)[C@@H](O)[C@@H](C)[C@H](OC(=O)N2CCCC3(CCN(C)CC3)C2)[C@@H]1C)C4=O [Compound 20]	0.06 (≈ 0.06 µM)	≤ 0.016	1 (≈ 1 µM)	–	–
CO[C@H]1/C=C/O[C@@]2(C)Oc3c(C)c(O)c4c(c3C2=O)C2=NC3(CCN(CC(C)C)CC3)NC2=C(NC(=O)/C(C)=C\C=C\[C@H](C)[C@H](O)[C@@H](C)[C@@H](O)[C@@H](C)[C@H](OC(=O)N2CCN(CCc3ccccc3)CC2)[C@@H]1C)C4=O [Compound 46]	0.25 (≈ 0.245 µM)	0.25	0.5 (≈ 0.49 µM)	–	–
CO[C@H]1/C=C/O[C@@]2(C)Oc3c(C)c(O)c4c(c3C2=O)C2=NC3(CCN(CC(C)C)CC3)NC2=C(NC(=O)/C(C)=C\C=C\[C@H](C)[C@H](O)[C@@H](C)[C@@H](O)[C@@H](C)[C@H](OC(=O)N2C[C@@H]3C[C@H]2CN3CC2CCCCC2)[C@@H]1C)C4=O [Compound 58]	0.125 (≈ 0.122 µM)	0.03	0.125 (≈ 0.122 µM)	–	–
CO[C@H]1/C=C/O[C@@]2(C)Oc3c(C)c(O)c4c(c3C2=O)C2=NC3(CCN(CC(C)C)CC3)NC2=C(NC(=O)/C(C)=C\C=C\[C@H](C)[C@H](O)[C@@H](C)[C@@H](O)[C@@H](C)[C@H](OC(=O)N2CCN(CCC(C)C)CC2)[C@@H]1C)C4=O [Compound 52]	0.25 (≈ 0.253 µM)	0.06	0.125 (≈ 0.127 µM)	–	–
CO[C@H]1/C=C/O[C@@]2(C)Oc3c(C)c(O)c4c(c3C2=O)C2=NC3(CCN(CC(C)C)CC3)NC2=C(NC(=O)/C(C)=C\C=C\[C@H](C)[C@H](O)[C@@H](C)[C@@H](O)[C@@H](C)[C@H](OC(=O)N(C)C(C)C)[C@@H]1C)C4=O [Compound 83]	0.125 (≈ 0.138 µM)	0.016	2 (≈ 2.21 µM)	–	–
CO[C@H]1/C=C/O[C@@]2(C)Oc3c(C)c(O)c4c(c3C2=O)C2=NC3(CCN(CC(C)C)CC3)NC2=C(NC(=O)/C(C)=C\C=C\[C@H](C)[C@H](O)[C@@H](C)[C@@H](O)[C@@H](C)[C@H](OC(=O)N2CCN(CCO)CC2)[C@@H]1C)C4=O [Compound 43]	0.06 (≈ 0.0624 µM)	≤ 0.016	8 (≈ 8.32 µM)	–	–
CCCN1CCC(NC(=O)O[C@H]2[C@H](C)[C@H](O)[C@H](C)[C@@H](O)[C@@H](C)/C=C/C=C(/C)C(=O)NC3=C4NC5(CCN(CC(C)C)CC5)N=C4c4c(c(O)c(C)c5c4C(=O)[C@@](C)(O/C=C/[C@H](OC)[C@H]2C)O5)C3=O)CC1 [Compound 75]	0.06 (≈ 0.0617 µM)	0.001	1 (≈ 1.03 µM)	–	–
CO[C@H]1/C=C/O[C@@]2(C)Oc3c(C)c(O)c4c(c3C2=O)C2=NC3(CCN(CC(C)C)CC3)NC2=C(NC(=O)/C(C)=C\C=C\[C@H](C)[C@H](O)[C@@H](C)[C@@H](O)[C@@H](C)[C@H](OC(=O)N2CCC3(CCN(CC5CCCCC5)C3)C2)[C@@H]1C)C4=O (stereo partly drawn) [Compound 36]	0.25 (≈ 0.237 µM)	0.06	0.125 (≈ 0.119 µM)	–	–
CO[C@H]1/C=C/O[C@@]2(C)Oc3c(C)c(O)c4c(c3C2=O)C2=NC3(CCN(CC(C)C)CC3)NC2=C(NC(=O)/C(C)=C\C=C\[C@H](C)[C@H](O)[C@@H](C)[C@@H](O)[C@@H](C)[C@H](OC(=O)N2CCN(Cc3ccco3)CC2)[C@@H]1C)C4=O [Compound 55]	0.125 (≈ 0.125 µM)	≤ 0.016	2 (≈ 2.01 µM)	–	–
CO[C@H]1/C=C/O[C@@]2(C)Oc3c(C)c(O)c4c(c3C2=O)C2=NC3(CCN(CC(C)C)CC3)NC2=C(NC(=O)/C(C)=C\C=C\[C@H](C)[C@H](O)[C@@H](C)[C@@H](O)[C@@H](C)[C@H](OC(=O)N2CCN3CCCC3C2)[C@@H]1C)C4=O (stereo partly drawn) [Compound 25]	0.03 (≈ 0.0313 µM)	≤ 0.016	2 (≈ 2.09 µM)	–	–
CO[C@H]1/C=C/O[C@@]2(C)Oc3c(C)c(O)c4c(c3C2=O)C2=NC3(CCN(CC(C)C)CC3)NC2=C(NC(=O)/C(C)=C\C=C\[C@H](C)[C@H](O)[C@@H](C)[C@@H](O)[C@@H](C)[C@H](OC(=O)N2CC3CC2CN3Cc2ccccc2)[C@@H]1C)C4=O [Compound 32]	0.25 (≈ 0.245 µM)	0.03	0.5 (≈ 0.491 µM)	–	–
CCN1CCC(NC(=O)O[C@H]2[C@H](C)[C@H](O)[C@H](C)[C@@H](O)[C@@H](C)/C=C/C=C(/C)C(=O)NC3=C4NC5(CCN(CC(C)C)CC5)N=C4c4c(c(O)c(C)c5c4C(=O)[C@@](C)(O/C=C/[C@H](OC)[C@H]2C)O5)C3=O)CC1 [Compound 74]	0.03 (≈ 0.0313 µM)	≤ 0.001	2 (≈ 2.09 µM)	–	–
